Tested on: midbrain explants
Assay: Midbrain explant cultures, TH+ cell numbers
Format: cell-based, rat
Conditions: without exogenous UCN
Method: Midbrain explants were dissected from E13.5 embryos by the method known by a person skilled in the art, for example as the protocol described by Baizabal and Covarrubias (2009) and performed with some modifications.
The dorsal midline of the explants was cut and the tissue was placed on porous (0.4 μm) transparent membrane inserts (25-mm in diameter, Nunc, Roskilde, Denmark) with the ventricular surface facing up. Inserts were then placed into six-well culture plates. Each well contained 1.5 mL of MEM medium supplemented with 10% FBS, 100 U/mL penicillin, and 100 μg/mL streptomycin. Explants were incubated at 37° C. with 5% CO2 for 4 hours, after which the explants were incubated in a serum-free DMEM/F12/N2 medium with or without UCN for 3 days. Midbrain explants were then fixed with 4% paraformaldehyde and immuno-histochemical analysis was performed.

[1] = CP-376395 in combination with astressin 2B

## astressin
astressin
  TH+ cell numbers in the VM of midbrain explants: reduce

## astressin 2B
[1]
  TH+ cell numbers in the VM of midbrain explants: reduce

## CCC(CC)Nc1cc(C)nc(Oc2c(C)cc(C)cc2C)c1C [CP-376395]
[1]
  TH+ cell numbers in the VM of midbrain explants: reduce
